Laboratory results from ChEMBL document CHEMBL4340530, “Peptide-based covalent inhibitors of MALT1 paracaspase” (Bioorg Med Chem Lett, 2019).
pKi: −log10 of the molar value. The source made the active and inactive calls. The rule behind the calls is not given here. Square brackets hold non-standard residues; d marks the D form. Peptide text beside a SMILES is read from it. * marks the point of attachment. cisHyp = O=C(O)[C@@H]1C[C@H](O)CN1; Hyp = O=C(O)[C@@H]1C[C@@H](O)CN1; NMeV = CN[C@H](C(=O)O)C(C)C; Cbz = O=C(OCc1ccccc1)*; CH2F = FC*

Columns and labels:
OCI-Ly1 = experiment: Antiproliferative activity against human OCI-LY1 cells up to 20 uM; type: functional, cell-based
[1] = molecular target: T1, Mucosa-associated lymphoid tissue lymphoma translocation protein 1 (Homo sapiens, UniProt Q9UDY8); experiment: Inhibition of recombinant LZ-fused MALT1 (340 to 789 residues) (unknown origin) using Ac-LRSR-AMC as substrate by fluorescence assay
T1 sequence (Q9UDY8 whole entry): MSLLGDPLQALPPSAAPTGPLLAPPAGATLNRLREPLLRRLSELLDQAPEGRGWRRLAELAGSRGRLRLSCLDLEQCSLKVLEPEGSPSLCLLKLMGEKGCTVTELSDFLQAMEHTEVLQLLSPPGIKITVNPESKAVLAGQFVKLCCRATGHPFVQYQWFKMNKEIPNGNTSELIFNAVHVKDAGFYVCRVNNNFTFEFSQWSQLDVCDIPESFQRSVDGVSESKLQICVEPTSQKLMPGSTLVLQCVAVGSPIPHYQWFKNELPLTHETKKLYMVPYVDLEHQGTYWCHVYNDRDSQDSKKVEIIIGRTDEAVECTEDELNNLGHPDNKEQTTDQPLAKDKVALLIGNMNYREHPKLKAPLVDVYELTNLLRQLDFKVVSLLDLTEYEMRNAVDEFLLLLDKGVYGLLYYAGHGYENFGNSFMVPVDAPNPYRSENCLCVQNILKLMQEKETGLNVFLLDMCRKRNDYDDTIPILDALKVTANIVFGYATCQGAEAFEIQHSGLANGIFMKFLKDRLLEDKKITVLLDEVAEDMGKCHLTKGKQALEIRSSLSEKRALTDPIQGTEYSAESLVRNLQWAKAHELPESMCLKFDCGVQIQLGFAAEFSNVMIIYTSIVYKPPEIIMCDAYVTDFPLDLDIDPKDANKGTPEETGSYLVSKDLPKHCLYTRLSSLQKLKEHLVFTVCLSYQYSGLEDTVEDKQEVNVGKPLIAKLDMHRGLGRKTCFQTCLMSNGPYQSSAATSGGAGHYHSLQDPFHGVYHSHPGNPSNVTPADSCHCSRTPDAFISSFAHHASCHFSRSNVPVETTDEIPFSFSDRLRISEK

OCI-Ly3 = experiment: Antiproliferative activity against human OCI-LY3 cells assessed as growth inhibition treated every 48 hrs measured after 96 hrs by CellTiter-Glo assay; type: functional
[2] = molecular target: T2, Mucosa-associated lymphoid tissue lymphoma translocation protein 1 (Homo sapiens) (UniProt Q9UDY8); experiment: Inhibition of MALT1 (unknown origin) expressed in PMA/IO-stimulated human Raji Glosensor cells by reporter gene assay; type: cell-based
T2 sequence (whole entry): T1 sequence (Q9UDY8 whole entry)

[3] = molecular target: T2, Mucosa-associated lymphoid tissue lymphoma translocation protein 1 (Homo sapiens); experiment: Inhibition of MALT1 in human OCI-LY3 cells assessed as reduction in Relb cleavage at 20 uM by Western blot analysis; type: cell-based

SMILES | Activity (OCI-Ly1) | pKi [1] | GI50 (OCI-Ly3) [nM] | IC50 [2] [nM] | inhibition [3]
CC(C)C[C@H](NC(=O)OCc1ccccc1)C(=O)N[C@H](C(=O)N1CCC[C@H]1C(=O)N[C@@H](CCCNC(=N)N)C(=O)CF)C(C)C (Cbz-LVPR-CH2F) | inactive | 7.05 | 1050 | – | –
CN[C@H](C(=O)N1CCC[C@H]1C(=O)N[C@@H](CCCNC(=N)N)C(=O)CF)C(C)C (H-[NMeV]-Pro-Arg-CH2F) | inactive | < 6.70 | > 20000 | – | –
CC(C)[C@H](NC(=O)OCc1ccccc1)C(=O)N1C[C@H](O)C[C@H]1C(=O)N[C@@H](CCCNC(=N)N)C(=O)CF (Cbz-Val-[Hyp]-Arg-CH2F) | – | – | 290 | 209 | –
CC(C)[C@H](NC(=O)OCc1ccccc1)C(=O)N1CCC[C@H]1C(=O)N[C@@H](CCCNC(=N)N)C(=O)CF (Cbz-Val-Pro-Arg-CH2F) | inactive | – | 8520 | – | –
CC(C)[C@@H](C(=O)N1CCC[C@H]1C(=O)N[C@@H](CCCNC(=N)N)C(=O)CF)N(C)C(=O)OCc1ccccc1 (Cbz-[NMeV]-Pro-Arg-CH2F) | inactive | – | > 20000 | – | –
CCC(=O)[C@H](CCCNC(=N)N)NC(=O)[C@@H]1CCCN1C(=O)[C@@H](NC(=O)[C@H](CC(C)C)NC(=O)OCc1ccccc1)C(C)C | inactive | < 5.30 | > 20000 | – | inactive
CC(C)[C@H](NC(=O)OCc1ccccc1)C(=O)N1C[C@@H](O)C[C@H]1C(=O)N[C@@H](CCCNC(=N)N)C(=O)CF (Cbz-Val-[cisHyp]-Arg-CH2F) | – | – | 1070 | 239 | –
